Reference: US6187754A, “Sialyl-Lewisa and sialyl-Lewisx epitode analogues” (GlycoTech Corp., priority 1996, dated 2001)

What was measured:
[1] = Remark on oxidation sensitivity in NMR characterisation; assay type: physicochemical; details: no long-term 13C-NMR measurement
[2] = Remark on solubility in NMR characterisation; assay type: physicochemical; details: CD3OD-D2O-CDCl3 (NMR solvent); no 13C NMR

COC(=O)CCCCCCCCO[C@@H]1O[C@H](CO)[C@@H](O)[C@H](O[C@@H]2O[C@H](CO)[C@H](O)[C@H](O[C@]3(C(=O)O)C[C@H](O)[C@@H](NC(C)=O)[C@H]([C@H](O)[C@H](O)CO)O3)[C@H]2O)[C@H]1NC(=O)c1ccc(O)c(O)c1 [(73)]
sensitivity to oxidation in organic solvents [1]: sensitivity of the compound to oxidation in organic solvents

COC(=O)CCCCCCCCO[C@@H]1O[C@H](CO)[C@@H](O[C@@H]2O[C@H](CO)[C@H](O)[C@H](O[C@]3(C(=O)O)C[C@H](O)[C@@H](NC(C)=O)[C@H]([C@H](O)[C@H](O)CO)O3)[C@H]2O)[C@H](O)[C@H]1NC(=O)c1cnc2nc(N)nc(O)c2n1 [(59)]
solubility [2]: poor solubility
